The target of one experiment is c-Raf (Homo sapiens, UniProt P04049). Briefly: Luciferase-coupled chemiluminescence kinase assay (ATP consumption), c-Raf. To be noted: read-out: cRaf-1 IC50. Type of experiment: biochemical. In outline:
(§1)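 Compound is first mixed with […] Raf enzyme in 20 mM Tris pH 7.5 containing 10 mM MgCl2, 0.03% TX-100 and 1 mM DTT (30 min, room temperature). ATP then starts a 3 h reaction, and unconsumed ATP is detected by chemiluminescence.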

The target of another experiment is B-Raf (Homo sapiens, UniProt P15056). In words: Luciferase-coupled chemiluminescence kinase assay (ATP consumption), B-Raf. In kind it is biochemical. To be noted: read-out: bRaf IC50. In outline: as §1
B-Raf, sequence (P15056 whole entry): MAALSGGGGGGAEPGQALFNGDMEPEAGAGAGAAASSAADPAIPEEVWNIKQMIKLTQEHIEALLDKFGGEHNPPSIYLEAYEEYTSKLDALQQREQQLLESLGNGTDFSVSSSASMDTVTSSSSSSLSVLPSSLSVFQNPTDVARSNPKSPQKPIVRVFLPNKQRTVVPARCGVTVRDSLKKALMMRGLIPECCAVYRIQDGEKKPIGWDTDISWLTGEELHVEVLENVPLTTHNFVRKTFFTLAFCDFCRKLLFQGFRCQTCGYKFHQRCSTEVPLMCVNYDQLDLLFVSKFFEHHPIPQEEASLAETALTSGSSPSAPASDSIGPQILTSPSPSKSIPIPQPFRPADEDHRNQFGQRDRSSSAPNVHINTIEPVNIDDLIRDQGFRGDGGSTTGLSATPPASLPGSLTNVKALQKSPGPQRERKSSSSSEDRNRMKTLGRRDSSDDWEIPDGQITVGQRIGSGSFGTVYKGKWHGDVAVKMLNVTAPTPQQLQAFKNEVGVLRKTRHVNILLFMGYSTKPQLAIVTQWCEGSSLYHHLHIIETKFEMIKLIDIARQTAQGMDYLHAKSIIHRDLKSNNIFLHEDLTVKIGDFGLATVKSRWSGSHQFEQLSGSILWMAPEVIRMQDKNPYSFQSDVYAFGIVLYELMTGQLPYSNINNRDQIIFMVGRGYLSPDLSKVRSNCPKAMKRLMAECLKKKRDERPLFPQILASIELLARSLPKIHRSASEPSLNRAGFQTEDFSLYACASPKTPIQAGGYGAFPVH

Data on 27 compounds can be found in US7846959B2, “Raf modulators and methods of use” (Exelixis, Inc., priority 2004, dated 2010).

As usually defined, the IC50 is the concentration that gives 50% inhibition.

c-Raf, sequence (P04049 whole entry): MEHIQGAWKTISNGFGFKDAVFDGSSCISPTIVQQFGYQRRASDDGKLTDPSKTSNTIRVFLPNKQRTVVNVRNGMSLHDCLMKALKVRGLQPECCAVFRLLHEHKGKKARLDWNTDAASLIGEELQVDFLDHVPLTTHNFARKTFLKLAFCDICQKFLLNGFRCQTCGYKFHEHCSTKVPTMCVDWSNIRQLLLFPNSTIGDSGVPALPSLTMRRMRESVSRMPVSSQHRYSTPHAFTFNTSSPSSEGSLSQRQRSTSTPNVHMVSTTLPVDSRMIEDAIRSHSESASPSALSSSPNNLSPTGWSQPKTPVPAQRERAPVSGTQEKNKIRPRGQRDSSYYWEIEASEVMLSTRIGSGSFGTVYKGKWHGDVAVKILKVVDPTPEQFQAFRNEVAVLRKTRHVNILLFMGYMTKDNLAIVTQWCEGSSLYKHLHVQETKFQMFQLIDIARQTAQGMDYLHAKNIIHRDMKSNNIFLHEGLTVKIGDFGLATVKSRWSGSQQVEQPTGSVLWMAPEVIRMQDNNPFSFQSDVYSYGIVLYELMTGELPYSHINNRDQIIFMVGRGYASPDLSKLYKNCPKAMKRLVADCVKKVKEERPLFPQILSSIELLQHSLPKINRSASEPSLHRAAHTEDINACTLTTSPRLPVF

Regarding `O=C(Nc1nc2cc(C3(O)c4ccccc4C(=O)N3Cc3ccccc3)ccc2[nH]1)OCC(F)(F)F` (stereo not drawn) [Entry 196, 2,2,2-trifluoroethyl {5-[1-hydroxy-3-oxo-2-(phenylmethyl)-2,3-dihydro-1H-isoindol-1-yl]-1H-benzimidazol-2-yl}carbamate], the IC50 on c-Raf and on B-Raf was under 0.1 µM each time.

`COC(=O)Nc1nc2cc(C3(O)c4ccccc4C(=O)N3c3cc(Cl)ccc3F)ccc2[nH]1` (stereo not drawn) [Entry 197, methyl {5-[2-(5-chloro-2-fluorophenyl)-1-hydroxy-3-oxo-2,3-dihydro-1H-isoindol-1-yl]-1H-benzimidazol-2-yl}carbamate]: the 50% inhibitory concentration (IC50) at c-Raf and on B-Raf was under 0.1 µM throughout.

For `COC(=O)Nc1nc2cc(C3(O)c4ccccc4C(=O)N3C(C)c3cc(Cl)ccc3C)ccc2[nH]1` (stereo not drawn) [Entry 198, methyl (5-{2-[1-(5-chloro-2-methylphenyl)ethyl]-1-hydroxy-3-oxo-2,3-dihydro-1H-isoindol-1-yl}-1H-benzimidazol-2-yl)carbamate], the half-maximal inhibitory concentration (IC50) on c-Raf and on B-Raf was 1 to 10 µM throughout.

For `CC[C@@H](c1ccccc1)N1C(=O)c2ccccc2C1(O)c1ccc2[nH]c(NC(=O)OC)nc2c1` (stereo partly drawn) [Entry 199, methyl (5-{1-hydroxy-3-oxo-2-[(1S)-1-phenylpropyl]-2,3-dihydro-1H-isoindol-1-yl}-1H-benzimidazol-2-yl)carbamate], the half-inhibitory concentration (IC50) on c-Raf and on B-Raf was 1 to 10 µM each time.

Take `COC(=O)Nc1nc2cc(C3(O)c4ccccc4C(=O)N3C(C)c3cccc(Cl)c3C)ccc2[nH]1` (stereo not drawn) [Entry 200, methyl (5-{2-[1-(3-chloro-2-methylphenyl)ethyl]-1-hydroxy-3-oxo-2,3-dihydro-1H-isoindol-1-yl}-1H-benzimidazol-2-yl)carbamate]: the 50% inhibitory concentration (IC50) at c-Raf and on B-Raf was 1 to 10 µM in each case.

For the compound `COC(=O)Nc1nc2cc(C3(O)c4ccccc4C(=O)N3C(C)c3ccc(C)s3)ccc2[nH]1` (stereo not drawn) [Entry 201, methyl (5-{1-hydroxy-2-[1-(5-methyl-2-thienyl)ethyl]-3-oxo-2,3-dihydro-1H-isoindol-1-yl}-1H-benzimidazol-2-yl)carbamate], the IC50 at c-Raf and on B-Raf was under 0.1 µM throughout.

`COC(=O)Nc1nc2cc(C3(O)c4ccccc4C(=O)N3C(C)c3ccc(Cl)s3)ccc2[nH]1` (stereo not drawn) [Entry 202, methyl (5-{2-[1-(5-chloro-2-thienyl)ethyl]-1-hydroxy-3-oxo-2,3-dihydro-1H-isoindol-1-yl}-1H-benzimidazol-2-yl)carbamate]: the IC50 at c-Raf and at B-Raf was under 0.1 µM each time.

With `COC(=O)Nc1nc2cc(C3(O)c4ccccc4C(=O)N3c3cccc(I)c3)ccc2[nH]1` (stereo not drawn) [Entry 203, methyl {5-[1-hydroxy-2-(3-iodophenyl)-3-oxo-2,3-dihydro-1H-isoindol-1-yl]-1H-benzimidazol-2-yl}carbamate], the IC50 at c-Raf and at B-Raf was under 0.1 µM in each case.

As to `COC(=O)Nc1nc2cc(C3(O)c4ccccc4C(=O)N3c3cccc(C(C)C)c3)ccc2[nH]1` (stereo not drawn) [Entry 204, methyl (5-{1-hydroxy-2-[3-(1-methylethyl)phenyl]-3-oxo-2,3-dihydro-1H-isoindol-1-yl}-1H-benzimidazol-2-yl)carbamate], the IC50 on c-Raf and on B-Raf was under 0.1 µM throughout.

On to `COC(=O)Nc1nc2cc(C3(O)c4ccccc4C(=O)N3Cc3ccco3)ccc2[nH]1` (stereo not drawn) [Entry 205, methyl {5-[2-(furan-2-ylmethyl)-1-hydroxy-3-oxo-2,3-dihydro-1H-isoindol-1-yl]-1H-benzimidazol-2-yl}carbamate], for which the 50% inhibitory concentration (IC50) at c-Raf and on B-Raf was under 0.1 µM throughout.

`COC(=O)Nc1nc2cc(C3(O)c4ccccc4C(=O)N3Cc3ccsc3)ccc2[nH]1` (stereo not drawn) [Entry 206, methyl {5-[1-hydroxy-3-oxo-2-(3-thienylmethyl)-2,3-dihydro-1H-isoindol-1-yl]-1H-benzimidazol-2-yl}carbamate]: the IC50 at c-Raf and at B-Raf was under 0.1 µM in each case.

Turning to `COC(=O)Nc1nc2cc(C3(O)c4ccccc4C(=O)N3CC3CCC3)ccc2[nH]1` (stereo not drawn) [Entry 207, methyl {5-[2-(cyclobutylmethyl)-1-hydroxy-3-oxo-2,3-dihydro-1H-isoindol-1-yl]-1H-benzimidazol-2-yl}carbamate], the IC50 on c-Raf and on B-Raf was under 0.1 µM each time.

Consider `O=C1c2ccccc2C(O)(c2ccc3[nH]c(NC(=O)C(O)(C(F)(F)F)C(F)(F)F)nc3c2)N1Cc1ccccc1` (stereo not drawn) [Entry 208, 3,3,3-trifluoro-2-hydroxy-N-{5-[1-hydroxy-3-oxo-2-(phenylmethyl)-2,3-dihydro-1H-isoindol-1-yl]-1H-benzimidazol-2-yl}-2-(trifluoromethyl)propanamide], for which the IC50 on c-Raf and at B-Raf was 1 to 10 µM in each case.

For `COC(=O)Nc1nc2cc(C3(O)c4ccccc4C(=O)N3C(C)c3cc(C)cs3)ccc2[nH]1` (stereo not drawn) [Entry 209, methyl (5-{1-hydroxy-2-[1-(4-methyl-2-thienyl)ethyl]-3-oxo-2,3-dihydro-1H-isoindol-1-yl}-1H-benzimidazol-2-yl)carbamate], the IC50 at c-Raf and at B-Raf was under 0.1 µM in each case.

For `COC(=O)Nc1nc2cc(C3(O)c4ccccc4C(=O)N3C(C)c3cc(Br)cs3)ccc2[nH]1` (stereo not drawn) [Entry 210, methyl (5-{2-[1-(4-bromo-2-thienyl)ethyl]-1-hydroxy-3-oxo-2,3-dihydro-1H-isoindol-1-yl}-1H-benzimidazol-2-yl)carbamate], the half-maximal inhibitory concentration (IC50) at c-Raf and on B-Raf was under 0.1 µM each time.

As to `COCCOc1cccc(N2C(=O)c3ccccc3C2(O)c2ccc3[nH]c(NC(=O)OC)nc3c2)c1` (stereo not drawn) [Entry 211, methyl {5-[1-hydroxy-2-(3-{[2-(methyloxy)ethyl]oxy}phenyl)-3-oxo-2,3-dihydro-1H-isoindol-1-yl]-1H-benzimidazol-2-yl}carbamate], the IC50 on c-Raf and at B-Raf was 1 to 10 µM throughout.

Regarding `O=C(Nc1nc2cc(C3(O)c4ccccc4C(=O)N3Cc3ccccc3)ccc2[nH]1)OCC1CCOC1` (stereo not drawn) [Entry 212, tetrahydrofuran-3-ylmethyl {5-[1-hydroxy-3-oxo-2-(phenylmethyl)-2,3-dihydro-1H-isoindol-1-yl]-1H-benzimidazol-2-yl}carbamate], the IC50 on c-Raf and on B-Raf was under 0.1 µM each time.

Turning to `O=C(Nc1nc2cc(C3(O)c4ccccc4C(=O)N3Cc3ccccc3)ccc2[nH]1)N1CCCCC1` (stereo not drawn) [Entry 213, N-{5-[1-hydroxy-3-oxo-2-(phenylmethyl)-2,3-dihydro-1H-isoindol-1-yl]-1H-benzimidazol-2-yl}piperidine-1-carboxamide], the IC50 at c-Raf lay within 0.1 to 1 µM; at B-Raf it was 1 to 10 µM.

`COC(=O)Nc1nc2cc(C3(O)c4ccccc4C(=O)N3c3ccc(F)c(Br)c3)ccc2[nH]1` (stereo not drawn) [Entry 214, methyl {5-[2-(3-bromo-4-fluorophenyl)-1-hydroxy-3-oxo-2,3-dihydro-1H-isoindol-1-yl]-1H-benzimidazol-2-yl}carbamate]: the 50% inhibitory concentration (IC50) on c-Raf and at B-Raf was under 0.1 µM in each case.

Turning to `O=C(Nc1nc2cc(C3(O)c4ccccc4C(=O)N3Cc3ccccc3)ccc2[nH]1)OCC(O)CO` (stereo not drawn) [Entry 215, 2,3-dihydroxypropyl {5-[1-hydroxy-3-oxo-2-(phenylmethyl)-2,3-dihydro-1H-isoindol-1-yl]-1H-benzimidazol-2-yl}carbamate], the concentration for half-maximal inhibition (IC50) at c-Raf and at B-Raf was under 0.1 µM in each case.

Turning to `COC(=O)Nc1nc2cc(C3(O)c4ccccc4C(=O)N3CC3CCCO3)ccc2[nH]1` (stereo not drawn) [Entry 216, methyl {5-[1-hydroxy-3-oxo-2-(tetrahydrofuran-2-ylmethyl)-2,3-dihydro-1H-isoindol-1-yl]-1H-benzimidazol-2-yl}carbamate], the IC50 at c-Raf and at B-Raf was 0.1 to 1 µM throughout.

Turning to `COC(=O)Nc1nc2cc(C3(O)c4ccccc4C(=O)N3c3cccc(C(N)=O)c3)ccc2[nH]1` (stereo not drawn) [Entry 217, methyl (5-{2-[3-(aminocarbonyl)phenyl]-1-hydroxy-3-oxo-2,3-dihydro-1H-isoindol-1-yl}-1H-benzimidazol-2-yl)carbamate], the concentration for half-maximal inhibition (IC50) is 0.1 to 1 µM at c-Raf and under 0.1 µM on B-Raf.

For the compound `O=C(CC(O)(C(F)(F)F)C(F)(F)F)Nc1nc2cc(C3(O)c4ccccc4C(=O)N3Cc3ccccc3)ccc2[nH]1` (stereo not drawn) [Entry 218, 4,4,4-trifluoro-3-hydroxy-N-{5-[1-hydroxy-3-oxo-2-(phenylmethyl)-2,3-dihydro-1H-isoindol-1-yl]-1H-benzimidazol-2-yl}-3-(trifluoromethyl)butanamide], the IC50 at c-Raf and on B-Raf was 1 to 10 µM each time.

As to `COC(=O)Nc1nc2cc(C3(O)c4ccccc4C(=O)N3c3cccc(S(C)(=O)=O)c3)ccc2[nH]1` (stereo not drawn) [Entry 219, methyl (5-{1-hydroxy-2-[3-(methylsulfonyl)phenyl]-3-oxo-2,3-dihydro-1H-isoindol-1-yl}-1H-benzimidazol-2-yl)carbamate], the IC50 on c-Raf and on B-Raf was 0.1 to 1 µM each time.

In the case of `COC(=O)Nc1nc2cc(C3(O)c4ccccc4C(=O)N3c3cccc(Oc4ccccc4)c3)ccc2[nH]1` (stereo not drawn) [Entry 220, methyl (5-{1-hydroxy-3-oxo-2-[3-(phenyloxy)phenyl]-2,3-dihydro-1H-isoindol-1-yl}-1H-benzimidazol-2-yl)carbamate], the IC50 at c-Raf and on B-Raf was under 0.1 µM throughout.

As for `COC(=O)Nc1nc2cc(C3(O)c4ccccc4C(=O)N3c3cccc(OCc4ccccc4)c3)ccc2[nH]1` (stereo not drawn) [Entry 221, methyl [5-(1-hydroxy-3-oxo-2-{3-[(phenylmethyl)oxy]phenyl}-2,3-dihydro-1H-isoindol-1-yl)-1H-benzimidazol-2-yl]carbamate], the IC50 was under 0.1 µM at c-Raf and 0.1 to 1 µM at B-Raf.

`COC(=O)Nc1nc2cc(C3(O)c4ccccc4C(=O)N3c3cccc(-c4ccccc4)c3)ccc2[nH]1` (stereo not drawn) [Entry 222, methyl [5-(2-biphenyl-3-yl-1-hydroxy-3-oxo-2,3-dihydro-1H-isoindol-1-yl)-1H-benzimidazol-2-yl]carbamate]: the concentration for half-maximal inhibition (IC50) on c-Raf and on B-Raf was 1 to 10 µM throughout.
